From US11639371B2, “Peptidylic inhibitors of nucleolin (NCL) targeting CAG-repeat RNA toxicity and methods for reducing polyQ-mediated toxicity in polyQ diseases” (The Chinese University of Hong Kong, priority 2016, dated 2023)
Peptide text beside a SMILES is read from it.

Columns and labels:
[1] = test system: pre-45s rRNA in EGFPCAG78 RNA expressing-HEK293 cells; assay: pre-45s rRNA expression by real-time PCR in EGFPCAG78 RNA-expressing HEK293 cells; assay type: cell-based, Human; conditions: expanded CAG-repeat RNA-expressing HEK293 cells
Method: (§1) RNA was extracted from cells by Trizol reagent (Life Technologies), and 1 μg of purified RNA was then used for reverse-transcription using the ImPromII™ Reverse Transcription System (Promega). Random hexamer (Roche) was used as primers in reverse transcription. Taqman gene expression assays were performed on an ABI 7500 Real-time PCR system and data were analyzed as previously described^10. The following probes were used: pre-45s rRNA (Assay ID: AILJIZM), actin (Assay ID: Hs99999903_m1), pre-rRNA (Assay ID: AIMSG5U) and GAPDH for Drosophila (Assay ID: Dm01841186).

[2] = test system: primary rat cortical neurons; assay: Cytotoxicity test on primary rat cortical neurons; conditions: wild-type primary rat cortical neurons
[3] = test system: EGFPCAG78-expressing HEK293 cells; assay: LDH cytotoxicity assay, EGFPCAG78 (only RNA toxicity); assay type: cell-based, Human
Method: (§2) Human embryonic kidney 293 cells were seeded on a 24-well plate at a density of 0.5×10^5, and pcDNA3.1-MJDCAG27/78 or, pEGFPCAG78 or, pcDNA3.1-SCA2CAG22/72/104 or pEGFP-trHttCAG23/73/145 construct was used to transfect the cells. Lactate dehydrogenase enzyme activity in the cell culture medium was measured 72 h post-transfection and drugs treatment using the Cytotox 96 non-radioactive cytotoxicity assay (Promega).

[4] = test system: pre-rRNA in DsRedCAG100 flies; assay: pre-rRNA expression by real-time PCR in DsRedCAG100 flies; assay type: in vivo; conditions: DsRedCAG100 Drosophila model, RNA toxicity only
Method: as §1
(§3) For pseudopupil assay, flies were raised at 21.5° C. on cornmeal medium supplemented with dry yeast. For climbing ability assay, lifespan analysis as well as external eye assay, flies were raised at 25° C. on cornmeal medium supplemented with dry yeast. We usually feed flies at larval stage unless otherwise indicated. For larval stage treatment, third instar larvae were fed with different concentration of TAT-P3L dissolved in 2% sucrose solution for 2 h and then continued to culture in standard fly food. For adult stage treatment, 5 or 10 day-old adult flies were starved for 8 h and then fed with different concentrations of TAT-P3L dissolved in 2% sucrose solution overnight. After treatment, flies were cultured in standard fly food.

[5] = test system: SCA2CAG72/104-expressing HEK293 cells; assay: LDH cytotoxicity assay, SCA2 disease cell model; assay type: cell-based, Human; conditions: SCA2CAG72/104-expressing HEK293, CAG-repeat RNA and polyQ protein
Method: as §2

[6] = test system: DsRedCAG250 flies; assay: Climbing ability assay, DsRedCAG250 flies; assay type: in vivo, Drosophila
Method: as §3
(§4) Pseudopupil assay^18 was performed on 12 day-old adult flies except for Httexon1CAG93 which 1 day-old adult flies were used for the assay. Images were captured by SPOT Insight CCD camera controlled by the SPOT Advanced software (Diagnostic instruments Inc.). External eye assay was performed on 1 day-old adult of CTG480 flies and 2 day-old adult of CGG90 flies using an Olympus SZX-12 stereomicroscope. […] Fly climbing ability was analyzed by negative geotaxis. […] After 1 h recovery, flies were banged to the bottom, and then scored for climbing ability as the percentage of flies remaining at the bottom (<2 cm) at 25s. […]

[7] = test system: trHttCAG72/145-expressing HEK293 cells; assay: LDH cytotoxicity assay, Htt disease cell model; assay type: cell-based, Human; conditions: trHttCAG72/145-expressing HEK293, CAG-repeat RNA and polyQ protein
Method: as §2

[8] = test system: flMJDCAG84 flies; assay: Pseudopupil assay, flMJDCAG84 flies; assay type: in vivo, Drosophila; conditions: MJD disease model
Method: as §3, §4

[9] = test system: DsRedCAG250 flies; assay: Lifespan analysis, DsRedCAG250 flies; assay type: in vivo, Drosophila
Method: as §3, §4

[10] = test system: CGG90 flies; assay: External eye assay, CGG90 flies (Fragile X syndrome); assay type: in vivo, Drosophila
Method: as §3, §4

[11] = test system: CTG480 flies; assay: External eye assay, CTG480 flies (Myotonic dystrophy 1); assay type: in vivo, Drosophila
Method: as §3, §4

[12] = test system: MJDCAG78-expressing HEK293 cells; assay: LDH cytotoxicity assay, MJD disease cell model; assay type: cell-based, Human; conditions: MJDCAG78-expressing HEK293, CAG-repeat RNA and polyQ protein
Method: as §2

[13] = test system: Httexon1CAG93 flies; assay: Pseudopupil assay, Httexon1CAG93 flies; assay type: in vivo, Drosophila; conditions: Htt disease model, 1 day-old adults
Method: as §3, §4

[14] = test system: DsRedCAG100 flies; assay: Pseudopupil assay, DsRedCAG100 flies; assay type: in vivo, Drosophila
Method: as §3, §4

CC[C@H](C)[C@H](NC(=O)CNC(=O)[C@H](CCCCN)NC(=O)[C@H](CO)NC(=O)[C@H](CCCCN)NC(=O)CNC(=O)[C@H](CC(=O)O)NC(=O)[C@H](CCCCN)NC(=O)[C@H](CO)NC(=O)[C@@H](NC(=O)[C@H](CC(C)C)NC(=O)[C@H](CCCNC(=N)N)NC(=O)[C@@H](NC(=O)[C@H](CCC(=O)O)NC(=O)[C@H](C)NC(=O)[C@H](CCCNC(=N)N)NC(=O)[C@H](CCCNC(=N)N)NC(=O)[C@H](CCCNC(=N)N)NC(=O)[C@H](CCC(N)=O)NC(=O)[C@H](CCCNC(=N)N)NC(=O)[C@H](CCCNC(=N)N)NC(=O)[C@H](CCCCN)NC(=O)[C@H](CCCCN)NC(=O)[C@H](CCCNC(=N)N)NC(=O)CNC(=O)[C@@H](N)Cc1ccc(O)cc1)[C@@H](C)CC)C(C)C)C(=O)N[C@@H](C)C(=O)N[C@@H](Cc1ccc(O)cc1)C(=O)N[C@H](C(=O)N[C@@H](CCC(=O)O)C(=O)N[C@@H](Cc1ccccc1)C(=O)N[C@@H](CCCCN)C(=O)O)[C@@H](C)CC [TAT-P3L] (H-YGRKKRRQRRRAEIRLVSKDGKSKGIAYIEFK-OH)
pre-45s rRNA transcription level [1]: restore the pre-45s rRNA transcription level | concentration with no observed cytotoxicity (viability not compromised) [2]: up to 25 μM | suppression of EGFPCAG78 RNA-induced cell death ([3]; LDH enzyme activity, 72 h post-transfection and treatment): significantly suppressed | IC50 ([3]; concentration that reduced LDH enzyme activity by 50% vs untreated control, EGFPCAG78 HEK293, read-out: IC50 in inhibiting expanded CAG-repeat RNA-induced cell death): 700 nM | pre-rRNA expression level [4]: restore pre-rRNA expression level | suppression of cell death [5]: concentration-dependent suppression in cell death | climbing ability ([6]; larval treatment, 5, 10 and 15 day-old adult DsRedCAG250 flies): ameliorated the climbing ability | climbing ability ([6]; late adult stage treatment, DsRedCAG250 flies already showing degeneration): dose-dependent improvement of the climbing ability | suppression of cell death [7]: concentration-dependent suppression in cell death | suppression of retinal degeneration (pseudopupil assay) [8]: suppressed retinal degeneration | lifespan [9]: extended the lifespan | effect on degenerative phenotype (specificity) [10]: did not mitigate the phenotypes | effect on degenerative phenotype (specificity) [11]: did not mitigate the phenotypes | suppression of cell death [12]: concentration-dependent suppression in cell death | suppression of retinal degeneration (pseudopupil assay) [13]: suppressed retinal degeneration | suppression of neurodegeneration compared with TAT-P3 ([14]; 50 uM concentration): suppressed neurodegeneration more effectively than TAT-P3 | inhibition of neurodegeneration (retinal degeneration, pseudopupil assay) ([14]; larval feeding, 12 day-old adults): concentration-dependent inhibition of neurodegeneration

CC[C@H](C)[C@H](NC(=O)CNC(=O)[C@H](CCCCN)NC(=O)[C@H](CO)NC(=O)[C@H](CCCCN)NC(=O)CNC(=O)[C@H](CC(=O)O)NC(=O)[C@H](CCCCN)NC(=O)[C@H](CO)NC(=O)[C@@H](NC(=O)[C@H](CC(C)C)NC(=O)[C@H](CCCNC(=N)N)NC(=O)[C@@H](NC(=O)[C@H](CCC(=O)O)NC(=O)[C@H](C)N)[C@@H](C)CC)C(C)C)C(=O)N[C@@H](C)C(=O)N[C@@H](Cc1ccc(O)cc1)C(=O)N[C@H](C(=O)N[C@@H](CCC(=O)O)C(=O)N[C@@H](Cc1ccccc1)C(=O)N[C@@H](CCCCN)C(=O)O)[C@@H](C)CC [P3L] (H-AEIRLVSKDGKSKGIAYIEFK-OH)
concentration with no observed cytotoxicity (viability not compromised) [2]: up to 25 μM
